SMILES strings stand for the structures. The source made the active and inactive calls. The rule behind the calls is not given here. Square brackets hold non-standard residues; d marks the D form. Peptide text beside a SMILES is read from it. Phe(4-NO2) = N[C@@H](Cc1ccc([N+](=O)[O-])cc1)C(=O)O; Phe(4-tBu) = CC(C)(C)c1ccc(C[C@H](N)C(=O)O)cc1; Phe(4-NH2) = Nc1ccc(C[C@H](N)C(=O)O)cc1; Phe(4-Me) = Cc1ccc(C[C@H](N)C(=O)O)cc1; NMeF = CN[C@@H](Cc1ccccc1)C(=O)O; β3hP = O=C(O)C[C@@H]1CCCN1

The record followed here is ChEMBL document CHEMBL4732135, “Structural and mechanistic insights into the inhibition of amyloid-β aggregation by Aβ fragment derived synthetic peptides” (Eur J Med Chem, 2021).

The first data set has as its target Amyloid-beta precursor protein (Homo sapiens) (UniProt P05067). In words: Inhibition of amyloid beta (1 to 42) (unknown origin) assessed as reduction in peptide aggregation at 4 uM measured after 24 hrs by thioflavin-T fluorescence assay relative to control.
Details: not given
As usually defined, the inhibition is how much of the control response was suppressed. On to `CC[C@H](C)[C@H](NC(=O)[C@@H](NC(=O)[C@H](Cc1ccccc1)NC)C(C)C)C(=O)N[C@@H](C)C(=O)O` (H-[NMeF]VIA-OH), for which the inhibition came out at 94.3%.
Take `CC[C@H](C)[C@H](NC(=O)[C@@H](NC(=O)[C@@H](N)Cc1ccc(C)cc1)C(C)C)C(=O)N[C@@H](C)C(=O)O` (H-[Phe(4-Me)]VIA-OH): the inhibition turned out to be 3.2%.
As to `CC[C@H](C)[C@H](NC(=O)[C@@H](NC(=O)[C@@H](N)Cc1ccc(N)cc1)C(C)C)C(=O)N[C@@H](C)C(=O)O` (H-[Phe(4-NH2)]VIA-OH), the inhibition is 68.4%.
On to `CC[C@H](C)[C@H](NC(=O)[C@@H](NC(=O)[C@@H](N)Cc1ccc([N+](=O)[O-])cc1)C(C)C)C(=O)N[C@@H](C)C(=O)O` (H-[Phe(4-NO2)]VIA-OH), for which the inhibition is 78.4%.
With `CC[C@H](C)[C@H](NC(=O)[C@@H](NC(=O)[C@@H](N)Cc1ccc(C(C)(C)C)cc1)C(C)C)C(=O)N[C@@H](C)C(=O)O` (H-[Phe(4-tBu)]VIA-OH), the inhibition is 57.4%.
`CC[C@H](C)[C@H](NC(=O)C[C@@H]1CCCN1C(=O)C[C@@H]1CCCN1)C(=O)N[C@@H](C)C(=O)O` (H-[β3hP][β3hP]IA-OH): the inhibition was found to be 89.7%.

The next data set concerns Cortical neurone. In words: Neuroprotective activity against amyloid beta 42-induced toxicity in rat primary cortical neurons at 10 uM. The format is functional, cell-based.
Details: not given
Consider `COc1cc(/C=C/C(=O)CC(=O)/C=C/c2ccc(O)c(OC)c2)ccc1O`, for which the result was Active.
Consider `Oc1ccc(/C=C/c2cc(O)cc(O)c2)cc1`, for which the outcome was Active.

In another data set the target is Amyloid-beta precursor protein (Homo sapiens) (UniProt P05067). Put plainly: Inhibition of amyloid beta (1 to 42) (unknown origin) assessed as reduction in peptide aggregation at 2 uM measured after 24 hrs by thioflavin-T fluorescence assay relative to control.
Sequence of Amyloid-beta precursor protein (Homo sapiens) (P05067 whole entry): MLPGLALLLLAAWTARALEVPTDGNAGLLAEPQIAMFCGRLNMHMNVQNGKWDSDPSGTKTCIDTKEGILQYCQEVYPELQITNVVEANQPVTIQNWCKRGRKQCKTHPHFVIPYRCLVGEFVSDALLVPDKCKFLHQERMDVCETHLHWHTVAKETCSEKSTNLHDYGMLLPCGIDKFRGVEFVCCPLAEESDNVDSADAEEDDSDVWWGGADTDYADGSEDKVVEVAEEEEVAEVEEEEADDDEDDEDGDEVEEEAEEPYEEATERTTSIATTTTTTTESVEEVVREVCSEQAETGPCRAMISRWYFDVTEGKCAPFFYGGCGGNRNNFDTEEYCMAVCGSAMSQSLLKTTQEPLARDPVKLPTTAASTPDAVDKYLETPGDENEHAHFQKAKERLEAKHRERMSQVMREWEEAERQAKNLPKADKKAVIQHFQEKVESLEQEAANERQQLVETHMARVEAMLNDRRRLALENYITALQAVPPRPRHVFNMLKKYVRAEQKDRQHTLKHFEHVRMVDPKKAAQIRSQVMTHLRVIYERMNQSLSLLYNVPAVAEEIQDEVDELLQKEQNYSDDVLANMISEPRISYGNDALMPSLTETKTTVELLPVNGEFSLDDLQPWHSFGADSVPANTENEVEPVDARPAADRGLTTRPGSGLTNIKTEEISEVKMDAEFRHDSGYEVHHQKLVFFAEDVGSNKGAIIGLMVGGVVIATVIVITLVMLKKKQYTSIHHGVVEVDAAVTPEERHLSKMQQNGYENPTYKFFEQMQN
Details: not given
Regarding `CC[C@H](C)[C@H](NC(=O)[C@@H](NC(=O)[C@H](Cc1ccccc1)NC)C(C)C)C(=O)N[C@@H](C)C(=O)O` (H-[NMeF]VIA-OH), the inhibition is 84.8%.
Consider `CC[C@H](C)[C@H](NC(=O)[C@@H](NC(=O)[C@@H](N)Cc1ccc(C)cc1)C(C)C)C(=O)N[C@@H](C)C(=O)O` (H-[Phe(4-Me)]VIA-OH), for which the inhibition is 0%.
On the same count and under the same terms, the figure for `CC[C@H](C)[C@H](NC(=O)[C@@H](NC(=O)[C@@H](N)Cc1ccc(N)cc1)C(C)C)C(=O)N[C@@H](C)C(=O)O` (H-[Phe(4-NH2)]VIA-OH) is 59.2%; for `CC[C@H](C)[C@H](NC(=O)[C@@H](NC(=O)[C@@H](N)Cc1ccc([N+](=O)[O-])cc1)C(C)C)C(=O)N[C@@H](C)C(=O)O` (H-[Phe(4-NO2)]VIA-OH) it is 94.8%; for `CC[C@H](C)[C@H](NC(=O)[C@@H](NC(=O)[C@@H](N)Cc1ccc(C(C)(C)C)cc1)C(C)C)C(=O)N[C@@H](C)C(=O)O` (H-[Phe(4-tBu)]VIA-OH) it is 78.6%.
On the same count and under the same terms, as for `CC[C@H](C)[C@H](NC(=O)C[C@@H]1CCCN1C(=O)C[C@@H]1CCCN1)C(=O)N[C@@H](C)C(=O)O` (H-[β3hP][β3hP]IA-OH), the figure is 78.9%.

The test system of a further data set is PC-12. Put plainly: Neuroprotective activity against amyloid beta 42-induced toxicity in rat PC-12 cells assessed as cell viability at 4 uM measured after 6 hrs by MTT assay (reference value: 74.05%). The format is functional. The conditions noted are these: read-out: Activity. (In general: Formazan colour is commonly taken as a measure of viable cells.)
Turning to `CC[C@H](C)[C@H](NC(=O)[C@@H](NC(=O)[C@H](Cc1ccccc1)NC)C(C)C)C(=O)N[C@@H](C)C(=O)O` (H-[NMeF]VIA-OH), the viability at 4 µM worked out at 81%.
Take `CC[C@H](C)[C@H](NC(=O)[C@@H](NC(=O)[C@@H](N)Cc1ccc(C)cc1)C(C)C)C(=O)N[C@@H](C)C(=O)O` (H-[Phe(4-Me)]VIA-OH): the viability at 4 µM is 68.4%.
The same measure, in the same setting: the figure for `CC[C@H](C)[C@H](NC(=O)[C@@H](NC(=O)[C@@H](N)Cc1ccc(N)cc1)C(C)C)C(=O)N[C@@H](C)C(=O)O` (H-[Phe(4-NH2)]VIA-OH) is 70.3%; for `CC[C@H](C)[C@H](NC(=O)[C@@H](NC(=O)[C@@H](N)Cc1ccc([N+](=O)[O-])cc1)C(C)C)C(=O)N[C@@H](C)C(=O)O` (H-[Phe(4-NO2)]VIA-OH) it is 100%; for `CC[C@H](C)[C@H](NC(=O)[C@@H](NC(=O)[C@@H](N)Cc1ccc(C(C)(C)C)cc1)C(C)C)C(=O)N[C@@H](C)C(=O)O` (H-[Phe(4-tBu)]VIA-OH) it is 87.3%.
For `CC[C@H](C)[C@H](NC(=O)C[C@@H]1CCCN1C(=O)C[C@@H]1CCCN1)C(=O)N[C@@H](C)C(=O)O` (H-[β3hP][β3hP]IA-OH), the viability at 4 µM was 75.5%.

Tested on in the next data set: not listed separately
In words: Effective permeability of compound in pH 8 PBS buffer by PAMPA-BBB assay. Format: ADME.
Details: not given
Turning to `CC[C@H](C)[C@H](NC(=O)[C@@H](NC(=O)[C@H](Cc1ccccc1)NC)C(C)C)C(=O)N[C@@H](C)C(=O)O` (H-[NMeF]VIA-OH), the Peff result is on record as “Permeable”.

The next data set has as its system PC-12. Put plainly: Neuroprotective activity against amyloid beta 42-induced toxicity in rat PC-12 cells assessed as cell viability at 10 uM measured after 6 hrs by MTT assay (reference value: 74.05%). The following applies: read-out: Activity. Format: functional.
Take `CC[C@H](C)[C@H](NC(=O)[C@@H](NC(=O)[C@H](Cc1ccccc1)NC)C(C)C)C(=O)N[C@@H](C)C(=O)O` (H-[NMeF]VIA-OH): the viability at 10 µM is 100%.
As for `CC[C@H](C)[C@H](NC(=O)[C@@H](NC(=O)[C@@H](N)Cc1ccc(C)cc1)C(C)C)C(=O)N[C@@H](C)C(=O)O` (H-[Phe(4-Me)]VIA-OH), the viability at 10 µM amounted to 72.6%.
Still for that read-out and setting: the figure for `CC[C@H](C)[C@H](NC(=O)[C@@H](NC(=O)[C@@H](N)Cc1ccc(N)cc1)C(C)C)C(=O)N[C@@H](C)C(=O)O` (H-[Phe(4-NH2)]VIA-OH) is 82.1%.
`CC[C@H](C)[C@H](NC(=O)[C@@H](NC(=O)[C@@H](N)Cc1ccc([N+](=O)[O-])cc1)C(C)C)C(=O)N[C@@H](C)C(=O)O` (H-[Phe(4-NO2)]VIA-OH): the viability at 10 µM worked out at 73.7%.
With `CC[C@H](C)[C@H](NC(=O)[C@@H](NC(=O)[C@@H](N)Cc1ccc(C(C)(C)C)cc1)C(C)C)C(=O)N[C@@H](C)C(=O)O` (H-[Phe(4-tBu)]VIA-OH), the viability at 10 µM was determined as 80.2%.
For `CC[C@H](C)[C@H](NC(=O)C[C@@H]1CCCN1C(=O)C[C@@H]1CCCN1)C(=O)N[C@@H](C)C(=O)O` (H-[β3hP][β3hP]IA-OH), the viability at 10 µM was 100%.

Another data set addresses Amyloid-beta precursor protein (Homo sapiens) (UniProt P05067). In words: Inhibition of amyloid beta (1 to 42) (unknown origin) assessed as reduction in peptide aggregation at 10 uM measured after 24 hrs by thioflavin-T fluorescence assay relative to control.
Details: not given
Regarding `CC[C@H](C)[C@H](NC(=O)[C@@H](NC(=O)[C@H](Cc1ccccc1)NC)C(C)C)C(=O)N[C@@H](C)C(=O)O` (H-[NMeF]VIA-OH), the inhibition is 100%.
As for `CC[C@H](C)[C@H](NC(=O)[C@@H](NC(=O)[C@@H](N)Cc1ccc(C)cc1)C(C)C)C(=O)N[C@@H](C)C(=O)O` (H-[Phe(4-Me)]VIA-OH), the inhibition turned out to be 26.8%.
Same read-out and setting: the figure for `CC[C@H](C)[C@H](NC(=O)[C@@H](NC(=O)[C@@H](N)Cc1ccc(N)cc1)C(C)C)C(=O)N[C@@H](C)C(=O)O` (H-[Phe(4-NH2)]VIA-OH) is 77.4%; for `CC[C@H](C)[C@H](NC(=O)[C@@H](NC(=O)[C@@H](N)Cc1ccc([N+](=O)[O-])cc1)C(C)C)C(=O)N[C@@H](C)C(=O)O` (H-[Phe(4-NO2)]VIA-OH) it is 50.4%.
Take `CC[C@H](C)[C@H](NC(=O)[C@@H](NC(=O)[C@@H](N)Cc1ccc(C(C)(C)C)cc1)C(C)C)C(=O)N[C@@H](C)C(=O)O` (H-[Phe(4-tBu)]VIA-OH): the inhibition was determined as 42%.
Regarding `CC[C@H](C)[C@H](NC(=O)C[C@@H]1CCCN1C(=O)C[C@@H]1CCCN1)C(=O)N[C@@H](C)C(=O)O` (H-[β3hP][β3hP]IA-OH), the inhibition was determined as 100%.

The subject of the next data set is PC-12. In words: Neuroprotective activity against amyloid beta 42-induced toxicity in rat PC-12 cells assessed as cell viability at 2 uM measured after 6 hrs by MTT assay (reference value: 74.05%). Format: functional. The following applies: read-out: Activity.
As to `CC[C@H](C)[C@H](NC(=O)[C@@H](NC(=O)[C@H](Cc1ccccc1)NC)C(C)C)C(=O)N[C@@H](C)C(=O)O` (H-[NMeF]VIA-OH), the viability at 2 µM was 86.1%.
Still for that read-out and setting: as for `CC[C@H](C)[C@H](NC(=O)[C@@H](NC(=O)[C@@H](N)Cc1ccc(C)cc1)C(C)C)C(=O)N[C@@H](C)C(=O)O` (H-[Phe(4-Me)]VIA-OH), the figure is 71.7%; as for `CC[C@H](C)[C@H](NC(=O)[C@@H](NC(=O)[C@@H](N)Cc1ccc(N)cc1)C(C)C)C(=O)N[C@@H](C)C(=O)O` (H-[Phe(4-NH2)]VIA-OH), 77.8%; as for `CC[C@H](C)[C@H](NC(=O)[C@@H](NC(=O)[C@@H](N)Cc1ccc([N+](=O)[O-])cc1)C(C)C)C(=O)N[C@@H](C)C(=O)O` (H-[Phe(4-NO2)]VIA-OH), 94.1%.
As for `CC[C@H](C)[C@H](NC(=O)[C@@H](NC(=O)[C@@H](N)Cc1ccc(C(C)(C)C)cc1)C(C)C)C(=O)N[C@@H](C)C(=O)O` (H-[Phe(4-tBu)]VIA-OH), the viability at 2 µM turned out to be 93.6%.
The same measure, in the same setting: as for `CC[C@H](C)[C@H](NC(=O)C[C@@H]1CCCN1C(=O)C[C@@H]1CCCN1)C(=O)N[C@@H](C)C(=O)O` (H-[β3hP][β3hP]IA-OH), the figure is 97.9%.
